Data on four compounds can be found in paper PMC6073568, “Efficient Lead Finding, Activity Enhancement and Preliminary Selectivity Control of Nuclear Receptor Ligands Bearing a Phenanthridinone Skeleton” (International Journal of Molecular Sciences, 2018).

One experiment deals with T1, LXRα (Homo sapiens, UniProt Q13133).
T1 construct: CMX-GAL4N-hLXRα-LBD; expressed in transfected cells; host or cells: HEK293
T1 sequence (Q13133 209-447 limits assumed): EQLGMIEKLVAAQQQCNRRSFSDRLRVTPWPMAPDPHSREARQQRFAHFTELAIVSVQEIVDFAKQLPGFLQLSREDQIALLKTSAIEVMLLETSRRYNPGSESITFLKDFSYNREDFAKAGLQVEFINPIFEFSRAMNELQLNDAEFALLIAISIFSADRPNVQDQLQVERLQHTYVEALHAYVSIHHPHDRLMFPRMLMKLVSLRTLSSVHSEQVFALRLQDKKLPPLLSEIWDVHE
The experiment can be described thus: LXRα reporter gene assay in HEK293. Type of experiment: cell-based. The note with it: read-out: LXRα antagonistic activity (IC50).

In another experiment the target is T2, LXRβ (Homo sapiens, UniProt P55055).
T2 construct: CMX-GAL4N-hLXRβ-LBD; expressed in transfected cells; host or cells: HEK293
T2 sequence (P55055 222-460 limits assumed): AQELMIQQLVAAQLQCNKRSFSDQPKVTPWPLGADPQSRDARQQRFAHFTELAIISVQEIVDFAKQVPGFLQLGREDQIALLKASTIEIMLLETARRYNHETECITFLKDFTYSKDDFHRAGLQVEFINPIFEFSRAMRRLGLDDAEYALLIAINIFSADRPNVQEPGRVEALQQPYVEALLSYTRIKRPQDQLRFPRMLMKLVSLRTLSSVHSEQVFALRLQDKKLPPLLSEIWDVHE
In words: LXRβ reporter gene assay in HEK293. It counts as cell-based. The note with it: read-out: LXRβ antagonistic activity (IC50).

For a further experiment, the target named is T3, AR (Homo sapiens, UniProt P10275).
T3 sequence (P10275 1-920): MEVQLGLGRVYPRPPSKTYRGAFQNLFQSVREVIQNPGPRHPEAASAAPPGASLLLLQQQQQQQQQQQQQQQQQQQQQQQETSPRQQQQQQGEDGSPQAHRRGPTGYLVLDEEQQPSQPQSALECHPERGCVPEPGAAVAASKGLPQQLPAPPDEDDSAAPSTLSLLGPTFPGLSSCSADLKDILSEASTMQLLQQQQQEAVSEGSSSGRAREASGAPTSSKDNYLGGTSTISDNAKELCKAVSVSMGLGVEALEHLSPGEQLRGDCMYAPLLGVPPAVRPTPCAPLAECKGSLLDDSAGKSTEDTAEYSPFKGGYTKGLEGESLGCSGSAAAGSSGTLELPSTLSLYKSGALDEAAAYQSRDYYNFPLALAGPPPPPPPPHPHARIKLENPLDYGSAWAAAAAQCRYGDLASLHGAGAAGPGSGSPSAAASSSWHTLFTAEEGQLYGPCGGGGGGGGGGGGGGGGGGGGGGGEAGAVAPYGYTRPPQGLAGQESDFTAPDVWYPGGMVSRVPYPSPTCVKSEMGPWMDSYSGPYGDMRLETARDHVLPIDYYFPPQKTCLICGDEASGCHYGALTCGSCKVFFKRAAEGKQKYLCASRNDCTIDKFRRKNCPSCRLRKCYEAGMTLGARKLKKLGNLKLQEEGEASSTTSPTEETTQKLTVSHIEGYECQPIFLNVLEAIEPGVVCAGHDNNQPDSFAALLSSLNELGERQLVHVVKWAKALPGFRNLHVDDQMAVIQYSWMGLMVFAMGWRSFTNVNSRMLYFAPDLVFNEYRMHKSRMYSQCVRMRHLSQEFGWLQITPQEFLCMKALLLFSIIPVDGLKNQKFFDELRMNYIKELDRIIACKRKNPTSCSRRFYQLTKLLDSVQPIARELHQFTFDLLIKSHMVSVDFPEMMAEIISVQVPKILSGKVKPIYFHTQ
In words: AR reporter gene assay in HEK293. It counts as cell-based. The note with it: for IC50: reporter gene assay, HEK293.

The next experiment concerns the target T4, GR (Homo sapiens, UniProt P04150).
T4 construct: expressed in transfected cells; host or cells: HEK293
T4 sequence (P04150 1-777): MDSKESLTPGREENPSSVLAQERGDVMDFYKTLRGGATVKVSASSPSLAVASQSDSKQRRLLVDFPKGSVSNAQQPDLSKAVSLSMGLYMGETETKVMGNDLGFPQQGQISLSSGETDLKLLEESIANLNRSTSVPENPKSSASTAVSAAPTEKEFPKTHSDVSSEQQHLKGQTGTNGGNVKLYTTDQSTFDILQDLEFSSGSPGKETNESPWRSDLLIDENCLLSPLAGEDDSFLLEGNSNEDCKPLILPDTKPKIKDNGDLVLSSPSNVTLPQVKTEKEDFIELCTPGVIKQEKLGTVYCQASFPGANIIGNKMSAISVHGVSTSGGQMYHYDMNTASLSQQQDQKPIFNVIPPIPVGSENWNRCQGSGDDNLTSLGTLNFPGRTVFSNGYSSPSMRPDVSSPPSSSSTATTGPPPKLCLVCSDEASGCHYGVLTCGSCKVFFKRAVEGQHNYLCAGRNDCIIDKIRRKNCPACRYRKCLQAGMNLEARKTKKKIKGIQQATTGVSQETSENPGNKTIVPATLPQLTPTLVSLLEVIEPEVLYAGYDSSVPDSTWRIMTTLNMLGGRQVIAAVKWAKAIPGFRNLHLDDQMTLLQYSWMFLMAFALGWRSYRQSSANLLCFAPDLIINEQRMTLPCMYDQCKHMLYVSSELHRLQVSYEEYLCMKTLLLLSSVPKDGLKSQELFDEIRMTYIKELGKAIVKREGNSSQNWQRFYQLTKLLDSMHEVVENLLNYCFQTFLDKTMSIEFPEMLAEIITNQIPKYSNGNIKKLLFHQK
The experiment can be described thus: GR reporter gene assay in HEK293. The note with it: reporter gene assay, HEK293; agonist dexamethasone 1 nM; read-out: GR antagonistic activity (IC50). Type of experiment: cell-based.

Experiment [1] addresses T5, PR (Homo sapiens, UniProt P06401).
T5 sequence (P06401 1-933): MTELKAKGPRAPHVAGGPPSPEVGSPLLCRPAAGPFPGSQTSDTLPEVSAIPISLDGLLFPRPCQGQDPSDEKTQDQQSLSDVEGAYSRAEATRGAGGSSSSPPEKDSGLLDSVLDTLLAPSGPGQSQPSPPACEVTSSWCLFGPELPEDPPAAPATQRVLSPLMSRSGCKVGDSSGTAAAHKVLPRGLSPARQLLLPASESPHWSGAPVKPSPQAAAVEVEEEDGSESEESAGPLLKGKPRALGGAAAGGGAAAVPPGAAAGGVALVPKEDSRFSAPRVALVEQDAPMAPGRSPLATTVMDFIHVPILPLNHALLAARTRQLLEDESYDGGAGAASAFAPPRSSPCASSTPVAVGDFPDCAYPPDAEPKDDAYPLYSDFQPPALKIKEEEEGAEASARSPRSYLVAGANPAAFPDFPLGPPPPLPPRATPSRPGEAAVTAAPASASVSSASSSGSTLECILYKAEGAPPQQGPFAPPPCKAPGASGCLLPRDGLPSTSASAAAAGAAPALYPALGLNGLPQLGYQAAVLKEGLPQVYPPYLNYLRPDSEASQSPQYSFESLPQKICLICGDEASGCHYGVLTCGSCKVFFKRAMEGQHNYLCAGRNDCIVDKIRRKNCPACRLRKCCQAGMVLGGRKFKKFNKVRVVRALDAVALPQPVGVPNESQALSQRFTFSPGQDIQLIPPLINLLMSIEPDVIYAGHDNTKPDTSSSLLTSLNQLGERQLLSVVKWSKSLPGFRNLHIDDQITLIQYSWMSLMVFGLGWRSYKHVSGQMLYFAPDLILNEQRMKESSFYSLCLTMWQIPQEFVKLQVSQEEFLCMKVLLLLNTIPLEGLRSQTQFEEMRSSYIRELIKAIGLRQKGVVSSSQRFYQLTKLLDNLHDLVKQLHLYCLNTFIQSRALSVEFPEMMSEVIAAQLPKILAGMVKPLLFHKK
The note with it: alkaline phosphatase, T47D cells, progesterone 1 nM; read-out: PR antagonistic activity (IC50); cited from earlier work.

For experiment [2], the target named is T5, PR. In words: T-47D alkaline phosphatase assay (PR antagonism). It counts as cell-based. Conditions: compared with 7.
Setting [3] is: agonist dihydrotestosterone 0.3 nM, read-out: AR antagonistic activity (IC50), AR reporter gene.

Read-outs that look alike come from different tables or passages of the source.

For `CCCCn1c(=O)c2ccc(Cl)cc2c2cc(C(O)(C(F)(F)F)C(F)(F)F)ccc21` [Compound 2], the concentration for half-maximal inhibition (IC50) is 9.2 µM on LXRα; 0.88 µM on LXRβ; 5.2 µM at AR (setting [3]); 10 µM on GR; 4.3 µM on PR [1].

Turning to `CCCCn1c(=O)c2ccc(C)cc2c2cc(C(O)(C(F)(F)F)C(F)(F)F)ccc21` [Compound 36], the half-maximal inhibitory concentration (IC50) was 12 µM on LXRα; 3 µM at LXRβ; 6.4 µM on AR (setting [3]); 16 µM at GR; 3.7 µM on PR [1].

With `CCCCn1c(=O)c2ccc(C(F)(F)F)cc2c2cc(C(O)(C(F)(F)F)C(F)(F)F)ccc21` [Compound 37], the half-maximal inhibitory concentration (IC50) is 7.1 µM on LXRα; 4.4 ± 0.8 µM at LXRβ; > 20 µM at AR (setting [3]); > 20 µM on GR; 4.2 µM on PR [1].

As for `CCCCn1c(=O)c2ccccc2c2cc(C(O)(C(F)(F)F)C(F)(F)F)ccc21` [Compound 12], the IC50 at LXRα came to 8.4 µM; at LXRβ it was 3.7 µM; at AR (setting [3]), 1.8 µM; on AR (read-out: AR antagonistic activity IC50), 0.1 µM; at GR it was 7.4 µM. Moreover, the “increase of PR activity” value at PR [2] came out at 6 fold. Also, the “selectivity for AR over LXRs” value at AR is ~50 fold. Moreover, on AR, the “selectivity for AR over PR” value is listed as “about 7.8 fold”. In addition, the “selectivity for AR over RORs and GR” value at AR was “more than 200 fold”. The “increase of AR activity” value on AR (compared with 7) is 9 fold.
